From PubChem BioAssay (NCI)
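Results reflect a 48-hour exposure of cells in 96-well plates to compound at five concentrations. TGI marks complete inhibition of growth.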

What was measured:
Assay in all cases: inhibition of tumour cell growth, NCI panel, 48 h
[1] = tested on: BT-549 breast
[2] = tested on: K-562 leukemia
[3] = tested on: OVCAR-4 ovarian
[4] = tested on: HT29 colon
[5] = tested on: OVCAR-3 ovarian
[6] = tested on: NCI-H23 lung
[7] = tested on: SNB-75 CNS
[8] = tested on: NCI-H460 lung
[9] = tested on: COLO 205 colon
[10] = tested on: MDA-MB-231 breast
[11] = tested on: SW-620 colon

Row | Compound | TGI [1] | TGI [2] | TGI [3] | TGI [4] | TGI [5] | TGI [6] | TGI [7] | TGI [8] | TGI [9] | TGI [10] | TGI [11]
1 | Cn1c2ncccc2n2c(=O)cc(O)cc12 | > 100 µM | > 100 µM | > 100 µM | > 100 µM | > 100 µM | > 100 µM | > 100 µM | > 100 µM | > 100 µM | > 100 µM | > 100 µM
2 | O=c1ccn(C/C=C/c2ccccc2)c(=S)n1C/C=C/c1ccccc1 | > 100 µM | > 100 µM | > 100 µM | > 100 µM | > 100 µM | > 100 µM | > 100 µM | > 100 µM | > 100 µM | > 100 µM | > 100 µM
3 | CN(C)c1n2c3ccc([N+](=O)[O-])cc3n3c(N(C)C)[n+]4ccccc4c3c2c2cccc[n+]12 | > 100 µM | > 100 µM | > 100 µM | > 100 µM | > 100 µM | > 100 µM | > 100 µM | > 100 µM | > 100 µM | > 100 µM | > 100 µM
4 | CCCCCCC(=O)OC[n+]1ccc(-c2c(COC(=O)NC(C)C)c(COC(=O)NC(C)C)c3n2CCC3)cc1 | > 100 µM | > 100 µM | > 100 µM | > 100 µM | > 100 µM | > 100 µM | > 100 µM | > 100 µM | > 100 µM | > 100 µM | > 100 µM
5 | Nc1c(F)c(F)c2c(c1F)N(CCCCCl)c1ccccc1S2 | > 100 µM | > 100 µM | > 100 µM | > 100 µM | > 100 µM | > 100 µM | > 100 µM | > 100 µM | > 100 µM | > 100 µM | > 100 µM
6 | CCOC(=O)/C(=C\c1c[nH]c2ccccc12)P(=O)(OCC)OCC | 62.7 µM | > 100 µM | 89.4 µM | 77.5 µM | 59.9 µM | 71.5 µM | 75.6 µM | 61.9 µM | 44.1 µM | 68.4 µM | > 100 µM
7 | Nc1c(S(=O)(=O)O)cc(S(=O)(=O)O)c2ccc(N=Nc3ccccc3)c(O)c12 | > 100 µM | > 100 µM | > 100 µM | > 100 µM | > 100 µM | > 100 µM | > 100 µM | > 100 µM | > 100 µM | > 100 µM | > 100 µM
8 | CC(C)N(C(C)C)S(=O)(=O)CC12CCC(C/C1=N\O)C2 (stereo not given) | > 100 µM | > 100 µM | > 100 µM | > 100 µM | > 100 µM | > 100 µM | > 100 µM | > 100 µM | > 100 µM | > 100 µM | > 100 µM
9 | Cc1cc(-c2nc3cc(F)ccc3s2)ccc1N | > 100 µM | > 100 µM | – | > 100 µM | > 68 µM | > 84.2 µM | > 79.1 µM | > 54.9 µM | > 67.3 µM | > 73.6 µM | > 100 µM
10 | CCCCC/C=C\C=C\CCCCCCCCC(=O)OC | > 100 µM | > 100 µM | > 100 µM | > 100 µM | > 100 µM | > 100 µM | > 100 µM | > 100 µM | > 100 µM | > 100 µM | > 100 µM
11 | COc1ccc(/C=C2/SC(=Nc3ccccc3)N(NC(=O)Cc3ccccc3)C2=O)cc1 | > 100 µM | > 100 µM | > 100 µM | > 100 µM | > 100 µM | > 100 µM | > 100 µM | > 100 µM | > 100 µM | > 100 µM | > 100 µM
12 | O=C(c1ccccc1)c1ccc(N2C(=O)/C(=C/c3ccccc3S)N=C2c2ccccc2)c(N2C(=O)/C(=C/c3ccccc3S)N=C2c2ccccc2)c1 | > 100 µM | > 100 µM | > 100 µM | > 100 µM | 51.2 µM | – | 65.8 µM | > 100 µM | > 100 µM | > 100 µM | > 100 µM
13 | COc1ccccc1N1CCN(S(=O)(=O)c2ccc(Cl)cc2)C1=N | > 100 µM | > 100 µM | > 100 µM | – | > 100 µM | > 100 µM | > 100 µM | > 100 µM | > 100 µM | > 100 µM | > 100 µM
14 | CN1C(=O)C(=Cc2ccc(Br)cc2)C(=O)N(C)C1=O | > 100 µM | > 100 µM | > 100 µM | – | > 100 µM | > 100 µM | > 100 µM | > 100 µM | > 100 µM | > 100 µM | > 100 µM
